Assay results published in the OligoGym collection.
Values joined by “and” are separate entries in the source; they are usually repeats but may differ in a detail not shown here. Equal values may be shown once. After the bases stand the sugars from the 5' end (letter, count) and the backbone: PS all phosphorothioate, else s phosphorothioate and o phosphodiester by linkage. Methylation of C is not given here. e = 2'-O-(2-methoxyethyl) (MOE); k = constrained ethyl (cEt); d = 2'-deoxy (DNA)

Target: SOD1
Details: ASO

Sequence: GCCTCAGACTACATCCA (sugars e2 k2 d9 k2 e2, PS)
- target mRNA inhibition (HepG2, 0.1875 µM): 34%
- target mRNA inhibition (HepG2, 0.75 µM): 59%
- target mRNA inhibition (HepG2, 3 µM): 87%
- target mRNA inhibition (HepG2, 4 µM): 82%
- target mRNA inhibition (HepG2, 12 µM): 95%

Sequence: CCATACAGGGTTTTTAT (sugars e3 k2 d7 k2 e3, PS)
- target mRNA inhibition (HepG2, 3 µM): 1%

Sequence: AGTGTTTAATGTTTATC (sugars e2 k2 d8 e5, linkages s1 o2 s9 o2 s2)
- target mRNA inhibition (A431, 0.062 µM): 16%
- target mRNA inhibition (A431, 0.185 µM): 43%
- target mRNA inhibition (A431, 0.556 µM): 65%
- target mRNA inhibition (A431, 1.667 µM): 68%
- target mRNA inhibition (A431, 5 µM): 79%
- target mRNA inhibition (A431, 15 µM): 83%
- target mRNA inhibition (SH-SY5Y, 0.062 µM): 33%
- target mRNA inhibition (SH-SY5Y, 0.185 µM): 10%
- target mRNA inhibition (SH-SY5Y, 0.556 µM): 43%
- target mRNA inhibition (SH-SY5Y, 1.667 µM): 61%
- target mRNA inhibition (SH-SY5Y, 5 µM): 81%
- target mRNA inhibition (SH-SY5Y, 15 µM): 77%

Sequence: CATCCAAGGGAATGTTT (sugars e3 k2 d7 k2 e3, PS)
- target mRNA inhibition (HepG2, 3 µM): 16%

Sequence: ACAGTGTTTAATGTTTA (sugars e3 k2 d7 k2 e3, PS)
- target mRNA inhibition (HepG2, 0.1875 µM): 35%
- target mRNA inhibition (HepG2, 0.75 µM): 71%
- target mRNA inhibition (HepG2, 3 µM): 56% and 79%
- target mRNA inhibition (HepG2, 12 µM): 82%

Sequence: GCACTGGGCCGTCGCCCTTC (sugars e5 d10 e5, PS)
- target mRNA inhibition (HepG2, 4 µM): 14%

Sequence: TTATTCACAGGCTTGAA (sugars e2 k2 d9 k2 e2, PS)
- target mRNA inhibition (HepG2, 5 µM): 30%

Sequence: ATACATTTCTACAGCTAG (sugars e5 d8 e5, linkages s1 o3 s9 o2 s2)
- target mRNA inhibition (A431, 0.12 µM): 9%
- target mRNA inhibition (A431, 0.6 µM): 10%
- target mRNA inhibition (A431, 3 µM): 27%
- target mRNA inhibition (A431, 15 µM): 43%
- target mRNA inhibition (HepG2, 0.222 µM): 7%
- target mRNA inhibition (HepG2, 0.667 µM): 28%
- target mRNA inhibition (HepG2, 2 µM): 54%
- target mRNA inhibition (HepG2, 6 µM): 79%

Sequence: GACAAGTTTAATACCCA (sugars e2 k2 d9 k2 e2, PS)
- target mRNA inhibition (HepG2, 5 µM): 59%

Sequence: TCATCCTTTGGCCCACC (sugars e3 k2 d7 k2 e3, PS)
- target mRNA inhibition (HepG2, 3 µM): 27%

Sequence: CCAGCACCCCGTCTCCGCGA (sugars e5 d10 e5, PS)
- target mRNA inhibition (HepG2, 4 µM): 38%

Sequence: CTTTGGCCCACCGTGTTTTC (sugars e5 d10 e5, PS)
- target mRNA inhibition (HepG2, 5 µM): 31% and 15%

Sequence: CTGCACTGGGCCGTCGCCCT (sugars e5 d10 e5, PS)
- target mRNA inhibition (HepG2, 4 µM): 24%

Sequence: TCCTTCTGCTCGAAATT (sugars e3 k2 d7 k2 e3, PS)
- target mRNA inhibition (HepG2, 3 µM): 14%

Sequence: CTCATAATAAGTGCCAT (sugars e2 k2 d9 k2 e2, PS)
- target mRNA inhibition (HepG2, 5 µM): 44%

Sequence: CACTACAGGTACTTTAA (sugars e2 k2 d8 k2 e3, PS)
- target mRNA inhibition (HepG2, 5 µM): 27%

Sequence: AATACAGGTCATTGAAA (sugars e3 k2 d7 k2 e3, PS)
- target mRNA inhibition (HepG2, 3 µM): 6%

Sequence: AACATGCCTCTCTTCAT (sugars e3 k2 d7 k2 e3, PS)
- target mRNA inhibition (HepG2, 3 µM): 13%

Sequence: TTTATTGGGCGATCCCA (sugars e2 k2 d8 k2 e3, PS)
- target mRNA inhibition (HepG2, 4 µM): 34%

Sequence: AGCCTCATAATAAGTGC (sugars e2 k2 d8 k2 e3, PS)
- target mRNA inhibition (HepG2, 5 µM): 16%

Sequence: CATCTGTGATTTAAGTC (sugars e2 k2 d8 k2 e3, PS)
- target mRNA inhibition (HepG2, 5 µM): 42%

Sequence: TCTTTTAATAGCCTCAT (sugars e2 k2 d8 k2 e3, PS)
- target mRNA inhibition (HepG2, 5 µM): 52%

Sequence: CTTCATCCTTTGGCCCA (sugars e3 k2 d7 k2 e3, PS)
- target mRNA inhibition (HepG2, 3 µM): 35%

Sequence: TTCACAGGCTTGAATGA (sugars e3 k2 d7 k2 e3, PS)
- target mRNA inhibition (HepG2, 3 µM): 9%

Sequence: GCCATACAGGGTTTTTA (sugars e3 k2 d7 k2 e3, PS)
- target mRNA inhibition (HepG2, 3 µM): 11%

Sequence: GGATAGAGGATTAAAGT (sugars e3 k2 d7 k2 e3, PS)
- target mRNA inhibition (HepG2, 3 µM): 14%

Sequence: ATGTTTATTGGGCGATC (sugars e3 k2 d7 k2 e3, PS)
- target mRNA inhibition (HepG2, 3 µM): 28%

Sequence: AATCAGTTTCTCACTAC (sugars e2 k2 d9 k2 e2, PS)
- target mRNA inhibition (HepG2, 5 µM): 53%

Sequence: TACAGGGTTTTTATTCA (sugars e2 k2 d9 k2 e2, PS)
- target mRNA inhibition (HepG2, 5 µM): 31%

Sequence: GCCGTCGCCCTTCAGCA (sugars e2 k2 d9 k2 e2, PS)
- target mRNA inhibition (HepG2, 4 µM): 57%

Sequence: GGAATGTTTATTGGGCG (sugars e3 k2 d7 k2 e3, PS)
- target mRNA inhibition (HepG2, 3 µM): 15%

Sequence: TTCCGAGGACTGCAACGGAA (sugars e5 d10 e5, PS)
- target mRNA inhibition (HepG2, 4 µM): 5%

Sequence: CATCTTTGTCAGCAGTCACA (sugars e5 d10 e5, PS)
- target mRNA inhibition (HepG2, 5 µM): 34% and 13%

Sequence: GGATTCTTTTAATAGCC (sugars e2 k2 d8 k2 e3, PS)
- target mRNA inhibition (HepG2, 5 µM): 14%

Sequence: CTCACTACAGGTACTTT (sugars e2 k2 d9 k2 e2, PS)
- target mRNA inhibition (HepG2, 5 µM): 54%

Sequence: AGTGTTTAATGTTTAT (sugars ekddddddddekekee, linkages s1 o1 s8 o3 s2)
- target mRNA inhibition (A431, 0.12 µM): 10%
- target mRNA inhibition (A431, 0.6 µM): 22%
- target mRNA inhibition (A431, 3 µM): 48%
- target mRNA inhibition (A431, 15 µM): 77%

Sequence: GCGATCCCAATTACACC (sugars e2 k2 d8 k2 e3, PS)
- target mRNA inhibition (HepG2, 4 µM): 31%

Sequence: TCTTCCAAGTGATCATA (sugars e2 k2 d9 k2 e2, PS)
- target mRNA inhibition (HepG2, 5 µM): 43%

Sequence: CATCTGCTTTTTCATGG (sugars e3 k2 d7 k2 e3, PS)
- target mRNA inhibition (HepG2, 3 µM): 70%

Sequence: ATAGCCTCATAATAAGTGCC (sugars e5 d10 e5, PS)
- target mRNA inhibition (HepG2, 5 µM): 19%

Sequence: CAAGTTTAATACCCATC (sugars e2 k2 d8 k2 e3, PS)
- target mRNA inhibition (HepG2, 5 µM): 52%

Sequence: AACTATACAAATCTTCC (sugars e2 k2 d9 k2 e2, PS)
- target mRNA inhibition (HepG2, 5 µM): 63%

Sequence: AAGTCTGGCAAAATACA (sugars e3 k2 d7 k2 e3, PS)
- target mRNA inhibition (HepG2, 3 µM): 10%

Sequence: CAGGATACATTTCTACAGCT (sugars e5 d10 e5, linkages sososssssssssssosos)
- target mRNA inhibition (A431, 0.062 µM): 20%
- target mRNA inhibition (A431, 0.185 µM): 29%
- target mRNA inhibition (A431, 0.556 µM): 49%
- target mRNA inhibition (A431, 1.667 µM): 69%
- target mRNA inhibition (A431, 5 µM): 76%
- target mRNA inhibition (A431, 15 µM): 83%
- target mRNA inhibition (SH-SY5Y, 0.062 µM): 0%
- target mRNA inhibition (SH-SY5Y, 0.185 µM): 17%
- target mRNA inhibition (SH-SY5Y, 0.556 µM): 39%
- target mRNA inhibition (SH-SY5Y, 1.667 µM): 59%
- target mRNA inhibition (SH-SY5Y, 5 µM): 85%
- target mRNA inhibition (SH-SY5Y, 15 µM): 82%

Sequence: ATCCAAGGGAATGTTTA (sugars e2 k2 d8 k2 e3, PS)
- target mRNA inhibition (HepG2, 4 µM): 35%

Sequence: ATTTCTACAGCTAGCAG (sugars e2 k2 d9 k2 e2, PS)
- target mRNA inhibition (HepG2, 0.1875 µM): 10%
- target mRNA inhibition (HepG2, 0.75 µM): 47%
- target mRNA inhibition (HepG2, 3 µM): 77%
- target mRNA inhibition (HepG2, 4 µM): 75%
- target mRNA inhibition (HepG2, 12 µM): 91%

Sequence: CAGTTTCTCACTACAGGTAC (sugars e5 d10 e5, PS)
- target mRNA inhibition (HepG2, 5 µM): 25%

Sequence: TAACAGATGAGTTAAGG (sugars e2 k2 d8 k2 e3, PS)
- target mRNA inhibition (HepG2, 4 µM): 68%

Sequence: CCAACATGCCTCTCTTC (sugars e3 k2 d7 k2 e3, PS)
- target mRNA inhibition (HepG2, 3 µM): 0%

Sequence: AATTACACCACAAGCCA (sugars e3 k2 d7 k2 e3, PS)
- target mRNA inhibition (HepG2, 3 µM): 21%

Sequence: CTCAGACTACATCCAAG (sugars e2 k2 d9 k2 e2, PS)
- target mRNA inhibition (HepG2, 0.1875 µM): 0%
- target mRNA inhibition (HepG2, 0.75 µM): 40%
- target mRNA inhibition (HepG2, 3 µM): 78%
- target mRNA inhibition (HepG2, 4 µM): 76%
- target mRNA inhibition (HepG2, 12 µM): 92%

Sequence: ATCACAGAATCTTCAATAGA (sugars e5 d10 e5, PS)
- target mRNA inhibition (HepG2, 5 µM): 11% and 10%

Sequence: TCTGACAAGTTTAATAC (sugars e2 k2 d9 k2 e2, PS)
- target mRNA inhibition (HepG2, 5 µM): 20%

Sequence: TGACAAGTTTAATACCC (sugars e2 k2 d9 k2 e2, PS)
- target mRNA inhibition (HepG2, 5 µM): 52%

Sequence: GAGATCACAGAATCTTC (sugars e3 k2 d7 k2 e3, PS)
- target mRNA inhibition (HepG2, 3 µM): 13%

Sequence: CGCTGCAGGAGACTACGACG (sugars e5 d10 e5, PS)
- target mRNA inhibition (HepG2, 4 µM): 23%

Sequence: TAACTGAGTTTTATAAAACT (sugars e5 d10 e5, PS)
- target mRNA inhibition (HepG2, 5 µM): 0%
